Measurements: patent US12668797B2, “Compositions and methods for treating chronic myelomonocytic leukemia” (H. Lee Moffitt Cancer Center and Research Institute, Inc., priority 2019, dated 2026)

Assays:
[1] = system: acute promyelocytic leukemia (APL); conditions: ATRA based therapy in APL; cited from earlier work
[2] = system: NRAS^Q61R/+ and NRAS^Q61R/+/MALAT1^KO/KO transplanted mice; assay: ATRA treatment of primary transplants from NRAS Q61R/+ GEM model of CMML; type: in vivo; conditions: ATRA intraperitoneally
Excerpt: To validate the differentiation effect in vivo primary transplants were generated from NRAS^Q61R/+/MALAT1^KO/KO and NRAS^Q61R/+ followed by treatment with ATRA. […] Differentiation syndrome is a treatable but potentially fatal complication of approved therapies which induce differentiation in myeloid neoplasms hallmarked by increases in myeloid cell adhesion, invasion, and ultimately lung infiltration. There was a higher proportion of terminally differentiated cells in the lungs of NRAS^Q61R/+/MALAT1^KO/KO mice compared to controls (FIG. 8B). Further, MALAT1 depleted THP-1 cells had increased adhesion and endothelial migration compared to controls consist with an increased potential for differentiation syndrome (FIG. 8C).

[3] = system: myelomonocytic leukemia cell lines; assay: Apoptosis in myelomonocytic leukemia cell lines; type: cell-based, human
human leukemic cells = assay: Differentiation markers CD11b and CD14 by flow cytometry in human leukemic cells; type: cell-based; conditions: stimulated cells, MALAT1 depleted versus control cells
THP-1 cells = assay: Differentiation of THP-1 MALAT1 CRISPR KO cells (CD11b/CD14); type: cell-based, human; conditions: MALAT1 depleted THP-1 versus control; ATRA 1 μM for 96 h (FIG. 7C)
Excerpt: To confirm that MALAT1 depletion could induce differentiation in human models of leukemia, MALAT1's major transcriptional start site was deleted via CRISPR/Cas9 as previously described in several single cell derived clones of the THP-1 cell line. THP-1 cells were chosen because they were derived from a patient with acute monocytic leukemia, they harbor an NRAS mutation, and they had the highest levels of MALAT1 in our screen of myeloid cell lines.

THP-1 xenografts = assay: THP-1 MALAT1 KO / WT xenografts treated with ATRA; type: in vivo, mice
Excerpt: Multiple MALAT1 depleted THP-1 leukemia cell line clones have been generated utilizing dual sgRNA-targeted CRISPR technology and partnered with IONIS pharmaceuticals to test clinical grade MALAT1 ASOs in a panel of cell lines. These reagents were used to evaluate the effects of MALAT1 depletion on the above cellular processes to include proliferation, cell cycle, and differentiation. […] Additionally, these models were used to test the impact of MALAT1 depletion on normal and leukemic stem cell self-renewal capacity as well as rigorously interrogated the numbers of hematopoietic stem and progenitor cells upon MALAT1 depletion. Leukemia human cell line xenograft models were used to test the in vivo consequence of MALAT1 depletion with the above CRISPR generated clones.
Differentiation syndrome is a common serious adverse event in human leukemia patients treated with differentiating agents. It is primarily characterized by an inflammatory reaction often a result of differentiated myeloid cells accumulating in target organs, especially the lungs.

CMML patients = conditions: 10 CMML patients, 45mg/m^2 of ATRA daily; cited from earlier work

| Compound | cure rates [1] | differentiation markers (Gr-1/Mac-1) [2] | dose-dependent apoptosis ([3]; ATRA alone) | apoptosis ([3]; ATRA in combination with MALAT1 depletion) | induction of apoptosis following ATRA treatment ([3]; FIG. 2, ATRA treatment) | differentiation markers CD11b and CD14 by flow cytometry upon stimulation (human leukemic cells) | response of differentiation markers (THP-1 cells) | differentiation syndrome (THP-1 xenografts; ATRA treated MALAT1 KO NSG xenografts, FIG. 1) | survival of xenografted mice (THP-1 xenografts; MALAT1 depleted xenografts treated with ATRA, pilot experiment) | survival of xenografted mice (THP-1 xenografts; WT xenografts treated with ATRA) | patients who developed differentiation syndrome (CMML patients) | patients who succumbed to differentiation syndrome (CMML patients) | patients with improvement in transfusion requirements (CMML patients) |
| --- | --- | --- | --- | --- | --- | --- | --- | --- | --- | --- | --- | --- | --- |
| CC1=C(/C=C/C(C)=C/C=C/C(C)=C/C(=O)O)C(C)(C)CCC1 [ATRA, all-trans retinoic acid] | ~95% | statistically significant differences | did not cause a robust dose-dependent apoptosis | induced apoptosis in a dose-dependent manner | minimal induction of apoptosis | enhanced | more robust response | evidence of differentiation syndrome | succumbed one-week post-ATRA therapy | remained unaffected | 2 patients | 1 patients | four |
| CCCCCCCCCCCCCC(=O)O[C@@H]1[C@@H](C)[C@@]2(O)[C@@H](C=C(CO)C[C@]3(O)C(=O)C(C)=C[C@@H]23)[C@@H]2C(C)(C)[C@]12OC(C)=O [PMA, phorbol myristate acetate] | – | – | – | – | – | enhanced | more robust response | – | – | – | – | – | – |
